Four compounds from ChEMBL document CHEMBL5241117, “Current leishmaniasis drug discovery” (RSC Med Chem, 2022) can be followed below.

A value given as a limit tells only on which side of the number the result lay.

Data set [1] deals with Leishmania donovani. As to the kind of experiment: Antileishmanial activity against Leishmania donovani infected in mouse model of visceral leishmaniasis assessed as reduction in parasite load. The class given is functional. Details: scale not given: the % may be the effect or the level left.
Data set [2] concerns Leishmania donovani. The experiment in a line: Antileishmanial activity against Leishmania donovani. The class given is functional, organism-based.
Data set [3] in a line: Cytotoxicity against human THP-1 cells. The class given is toxicity, cell-based.
The subject of data set [4] is Leishmania donovani. The experiment in a line: Antileishmanial activity against Leishmania donovani infected in mouse model of visceral leishmaniasis assessed as reduction in parasite load at 25 mg/kg, po administered for 10 days. The class given is functional. Also on record: scale not given: the % may be the effect or the level left. The note with it: time 10 day.

As usually defined, the EC50 is the concentration that produces a half-maximal response.

With `O=C(Nc1ccc(F)c(-c2ccn3c(N4CCOCC4)cnc3n2)c1)N1CCCC1` [GSK-3494245], in the data set with Leishmania donovani [1], the Activity is 95%.
In turn, `CCCCCCCCCCCCCCCCOP(=O)([O-])OCC[N+](C)(C)C` [MILTEFOSINE] displayed a 50% effective concentration (EC50) in the data set on Leishmania donovani [2] of 0.9 µM.
Turning to `C[C@H]1CN(c2n[nH]c3nc(N[C@H]4CC[C@H](NS(=O)(=O)CCC(F)(F)F)CC4)ncc23)CCO1` [GSK-3186899], the EC50 in data set [3] is over 50 µM; with Leishmania donovani [2] it was 1.4 µM. The Activity in the data set on Leishmania donovani [4] was determined as 99%.
`NC[C@@H]1O[C@H](O[C@H]2[C@@H](O)[C@H](O[C@@H]3[C@@H](O)[C@H](N)C[C@H](N)[C@H]3O[C@H]3O[C@H](CO)[C@@H](O)[C@H](O)[C@H]3N)O[C@@H]2CO)[C@H](N)[C@@H](O)[C@@H]1O` [PAROMOMYCIN] displayed an EC50 in the data set on Leishmania donovani [2] of 6.6 µM.
